This is an account of results in patent US12473282B2, “Biphenyl fluorine double bond derivative, preparation method therefor, and pharmaceutical application thereof” (Abbisko Therapeutics Co., Ltd., priority 2020, dated 2025).

The test can be described thus: Jurkat reporter gene cellular assay. It counts as cell-based. As to conditions: Homo sapiens; Jurkat/NF-κB-luc/PD1 + Raji-PD-L1 coculture, OKT3 1 μg/mL, 6 hrs, activation fold; read-out: Cell Activity EC50. As to the method:
The effect of compounds of the examples of the present invention and positive compounds on the interaction between PD-1 and PD-L1 expressed on cell surfaces, and the related influence on T cell functions, were determined by a Jurkat reporter gene cellular assay.
Briefly, the reporter gene plasmid of NF-κB-luc and the plasmid of human PD-1 were transfected into Jurkat cells to establish a stably transfected cell line capable of stably expressing both PD-1 and NF-κB-Luc reporter genes; the expression level of PD-1 on the cell surface was confirmed by flow cytometry; and the expression of the reporter gene was confirmed via the response of the reporter gene stimulated by OKT-3 and Raiji cells.
In addition, the plasmid of human PD-L1 was transfected into Raji cells to obtain a cell line capable of stably expressing PD-L1. Jurkat/NF-κB-luc/PD1 cells and Raji-PD-L1 cells were then cocultured and stimulated with OKT-3. On this basis, the compounds were added, and the enhancement of the signal pathway of T cell activation by the inhibitory effect of the compounds on the interaction between PD-1 and PD-L1 was evaluated by readings of reporter gene responses. The specific experimental process was as follows: • 1. 30 μL of compound or antibody solution was added to each well of a white 96-well plate (corning, 3610) at different diluted concentrations, and 10 μL of OKT3 (Biolegend, 317326) was then added (the final concentration of OKT3: 1 μg/mL); • 2. 20 μL of Raji-PD-L1 cell suspension was added to each well with 5*10^4 cells for each well, and was incubated in an incubator for 20 min; • 3. 20 μL of Jurkat/NF-Kb-luc/PD-1 cell suspension was added to each well with 5*10^4 cells for each well, and well mixed, and 6 hrs later, Bright-glo (Promega, E2620) was applied and plates were read on Envision; • 4. The reading of each well treated with the compound was compared with the reading of each well treated with DMSO to obtain the activation fold of the compound; • 5. EC50 values of compounds and positive compounds of the examples of the present invention were determined by non-linear regression analysis of activation folds at different compound concentrations.
In general terms: In a reporter assay the amount or activity of a reporter protein is the signal.

Broadly, the EC50 is the concentration at which the effect is half-maximal.

With `Cc1c(/C=C(\F)c2nc3c(n2C)CCNC3)cccc1-c1cccc(NC(=O)c2nc3c(n2C)CCN(CCC24CCC(C(=O)O)(CC2)C4)C3)c1C` [Example 2, (Z)-4-(2-(2-((3′-(2-fluoro-2-(1-methyl-4,5,6,7-tetrahydro-1H-imidazo [4,5-c]pyridin-2-yl)vinyl)-2,2′-dimethyl-[1,1′-biphenyl]-3-yl)carbamoyl)-1-methyl-1,4,6,7-tetrahydro-5H-imidazo[4,5-c]pyridin-5-yl)ethyl)bicyclo[2.2.1]heptane-1-carboxylic acid], the EC50 was 244 nM.
Then `Cc1c(/C=C(\F)c2nc3c(n2C)CCN(C[C@@H](C)O)C3)cccc1-c1cccc(NC(=O)c2nc3c(n2C)CCN(CCC24CCC(C(=O)O)(CC2)C4)C3)c1C` [Example 3, (R,Z)-4-(2-(2-((3′-(2-fluoro-2-(5-(2-hydroxypropyl)-1-methyl-4,5,6,7-tetrahydro-1H-imidazo[4,5-c]pyridin-2-yl)vinyl)-2,2′-dimethyl-[1,1′-biphenyl]-3-yl)carbamoyl)-1-methyl-1,4,6,7-tetrahydro-5H-imidazo[4,5-c]pyridin-5-yl)ethyl)bicyclo[2.2.1]heptane-1-carboxylic acid], with 95.2 nM; and `Cc1c(/C=C(\F)c2nc3c(n2C)CCN(C(C)C)C3)cccc1-c1cccc(NC(=O)c2nc3c(n2C)CCN(CCC24CCC(C(=O)O)(CC2)C4)C3)c1Cl` [Example 4, (Z)-4-(2-(2-((2-chloro-3′-(2-fluoro-2-(5-isopropyl-1-methyl-4,5,6,7-tetrahydro-1H-imidazo[4,5-c]pyridin-2-yl)vinyl)-2′-methyl-[1,1′-biphenyl]-3-yl)carbamoyl)-1-methyl-1,4,6,7-tetrahydro-5H-imidazo [4,5-c]pyridin-5-yl)ethyl)bicyclo[2.2.1]heptane-1-carboxylic acid], with 289 nM.
As for `Cc1c(/C=C(\F)c2nc3c(n2C)CCN(CCC24CCC(C(=O)O)(CC2)C4)C3)cccc1-c1cccc(NC(=O)c2nc3c(n2C)CCN(C(C)C)C3)c1C` [Example 5, (Z)-4-(2-(2-(1-fluoro-2-(3′-(5-isopropyl-1-methyl-4,5,6,7-tetrahydro-1H-imidazo[4,5-c]pyridine-2-carboxamido)-2,2′-dimethyl-[1,1′-biphenyl]-3-yl)vinyl)-1-methyl-1,4,6,7-tetrahydro-5H-imidazo[4,5-c]pyridin-5-yl)ethyl)bicyclo[2.2.1]heptane-1-carboxylic acid], the figure is 719 nM; as for `Cc1c(/C=C(\F)c2nc3c(n2C)CCN(C(C)C)C3)cccc1-c1cccc(NC(=O)c2nc3c(n2C)CCN(CC24CCC(C(=O)O)(CC2)C4)C3)c1C` [Example 6, (Z)-4-((2-((3′-(2-fluoro-2-(5-isopropyl-1-methyl-4,5,6,7-tetrahydro-1H-imidazo[4,5-c]pyridin-2-yl)vinyl)-2,2′-dimethyl-[1,1′-biphenyl]-3-yl)carbamoyl)-1-methyl-1,4,6,7-tetrahydro-5H-imidazo[4,5-c]pyridin-5-yl)methyl)bicyclo[2.2.1]heptane-1-carboxylic acid], 973 nM; as for `Cc1c(/C=C(\F)c2cc(C3CC3)c(CN3CCCC[C@H]3C(=O)O)cn2)cccc1-c1cccc(NC(=O)c2nc3c(n2C)CCN(C(C)C)C3)c1C` [Example 18, (S,Z)-1-((4-cyclopropyl-6-(1-fluoro-2-(3′-(5-isopropyl-1-methyl-4,5,6,7-tetrahydro-1H-imidazo[4,5-c]pyridine-2-carboxamido)-2,2′-dimethyl-[1,1′-biphenyl]-3-yl)vinyl)pyridin-3-yl)methyl)piperidine-2-carboxylic acid], 249 nM.
Then `Cc1c(/C=C(\F)c2cc(C3CC3)c(CN3CCCC[C@H]3C(=O)O)cn2)cccc1-c1cccc(NC(=O)c2nc3c(n2C)CCN(C[C@@H](C)O)C3)c1C` [Example 19, (S)-1-((4-cyclopropyl-6-((Z)-1-fluoro-2-(3′-(5-((R)-2-hydroxypropyl)-1-methyl-4,5,6,7-tetrahydro-1H-imidazo[4,5-c]pyridine-2-carboxamido)-2,2′-dimethyl-[1,1′-biphenyl]-3-yl)vinyl)pyridin-3-yl)methyl)], with 192 nM.
On to `COc1cc(/C(F)=C/c2cccc(-c3cccc(NC(=O)c4nc5c(n4C)CCN(CCC46CCC(C(=O)O)(CC4)C6)C5)c3Cl)c2Cl)ncc1CN1CC(O)C1` [Example 42, (Z)-4-(2-(2-((2,2′-dichloro-3′-(2-fluoro-2-(5-((3-hydroxyazetidin-1-yl)methyl)-4-methoxypyridin-2-yl)vinyl)-[1,1′-biphenyl]-3-yl)carbamoyl)-1-methyl-1,4,6,7-tetrahydro-5H-imidazo[4,5-c]pyridin-5-yl)ethyl)bicyclo[2.2.1]heptane-1-carboxylic acid], for which the concentration giving a half-maximal response (EC50) was 118 nM.
As for `COc1cc(/C(F)=C/c2cccc(-c3cccc(NC(=O)c4nc5c(n4C)CCN(CCC46CCC(C(=O)O)(CC4)C6)C5)c3Cl)c2Cl)ncc1CNCCCO` [Example 43, (Z)-4-(2-(2-((2,2′-dichloro-3′-(2-fluoro-2-(5-(((3-hydroxypropyl)amino)methyl)-4-methoxypyridin-2-yl)vinyl)-[1,1′-biphenyl]-3-yl)carbamoyl)-1-methyl-1,4,6,7-tetrahydro-5H-imidazo[4,5-c]pyridin-5-yl)ethyl)bicyclo[2.2.1]heptane-1-carboxylic acid], the concentration giving a half-maximal response (EC50) came to 137 nM.
Then `COc1cc(/C(F)=C/c2cccc(-c3cccc(NC(=O)c4nc5c(n4C)CCN(CCC46CCC(C(=O)O)(CC4)C6)C5)c3Cl)c2Cl)ncc1CN[C@@H](C)CO` [Example 44, (S,Z)-4-(2-(2-((2,2′-dichloro-3′-(2-fluoro-2-(5-(((1-hydroxypropan-2-yl)amino)methyl)-4-methoxypyridin-2-yl)vinyl)-[1,1′-biphenyl]-3-yl)carbamoyl)-1-methyl-1,4,6,7-tetrahydro-5H-imidazo[4,5-c]pyridin-5-yl)ethyl)bicyclo[2.2.1]heptane-1-carboxylic acid], with 105 nM.
On to `COc1cc(/C(F)=C/c2cccc(-c3cccc(NC(=O)c4nc5c(n4C)CCN(CCC46CCC(C(=O)O)(CC4)C6)C5)c3Cl)c2Cl)ncc1CN[C@H]1C[C@@H](O)C1` [Example 45, 4-(2-(2-((2,2′-dichloro-3′-((Z)-2-fluoro-2-(5-((((1S,3S)-3-hydroxycyclobutyl)amino)methyl)-4-methoxypyridin-2-yl)vinyl)-[1,1′-biphenyl]-3-yl)carbamoyl)-1-methyl-1,4,6,7-tetrahydro-5H-imidazo[4,5-c]pyridin-5-yl)ethyl)bicyclo[2.2.1]heptane-1-carboxylic acid], for which the EC50 was 114 nM.
As for `COc1cc(/C(F)=C/c2cccc(-c3cccc(NC(=O)c4nc5c(n4C)CCN(CCC46CCC(C(=O)O)(CC4)C6)C5)c3Cl)c2Cl)ncc1CNCC(C)(C)O` [Example 46, (Z)-4-(2-(2-((2,2′-dichloro-3′-(2-fluoro-2-(5-(((2-hydroxy-2-methylpropyl)amino)methyl)-4-methoxypyridin-2-yl)vinyl)-[1,1′-biphenyl]-3-yl)carbamoyl)-1-methyl-1,4,6,7-tetrahydro-5H-imidazo[4,5-c]pyridin-5-yl)ethyl)bicyclo[2.2.1]heptane-1-carboxylic acid], the figure is 152 nM; as for `COc1cc(/C(F)=C/c2cccc(-c3cccc(NC(=O)c4nc5c(n4C)CCN(CCC46CCC(C(=O)O)(CC4)C6)C5)c3Cl)c2Cl)ncc1CNC1CC1` [Example 47, (Z)-4-(2-(2-((2,2′-dichloro-3′-(2-(5-((cyclopropylamino)methyl)-4-methoxypyridin-2-yl)-2-fluorovinyl)-[1,1′-biphenyl]-3-yl)carbamoyl)-1-methyl-1,4,6,7-tetrahydro-5H-imidazo[4,5-c]pyridin-5-yl)ethyl) bicyclo[2.2. l]heptane-1-carboxylic acid], 147 nM.
Then `COc1cc(/C(F)=C/c2cccc(-c3cccc(NC(=O)c4nc5c(n4C)CCN(CCC46CCC(C(=O)O)(CC4)C6)C5)c3Cl)c2Cl)ncc1CNC1CCC1` [Example 48, (Z)-4-(2-(2-((2,2′-dichloro-3′-(2-(5-((cyclobutylamino)methyl)-4-methoxypyridin-2-yl)-2-fluorovinyl)-[1,1′-biphenyl]-3-yl)carbamoyl)-1-methyl-1,4,6,7-tetrahydro-5H-imidazo[4,5-c]pyridin-5-yl)ethyl) bicyclo[2.2.1]heptane-1-carboxylic acid], with 80.6 nM; and `COc1cc(/C(F)=C/c2cccc(-c3cccc(NC(=O)c4nc5c(n4C)CCN(CCC46CCC(C(=O)O)(CC4)C6)C5)c3Cl)c2Cl)ncc1CNC1CCCC1` [Example 51, (Z)-4-(2-(2-((2,2′-dichloro-3′-(2-(5-((cyclopentylamino)methyl)-4-methoxypyridin-2-yl)-2-fluorovinyl)-[1,1′-biphenyl]-3-yl)carbamoyl)-1-methyl-1,4,6,7-tetrahydro-5H-imidazo[4,5-c]pyridin-5-yl)ethyl) bicyclor[2.2.1]heptane-1-carboxylic acid], with 90.1 nM.
